Literature values, collected in patent publication US20190343827A1, “DEUTERATED ANALOGS OF TARIQUIDAR” (Izumi Technology, LLC, priority 2018, published 2019).

Tests used:
[1] = tested on: non-small-cell lung cancer; details: co-administration with paclitaxel or carboplatin
[2] = patients with lung, ovarian and cervical cancer

## COc1cc2c(cc1OC)CN(CCc1ccc(NC(=O)c3cc(OC)c(OC)cc3NC(=O)c3cnc4ccccc4c3)cc1)CC2 [Tariquidar, N-[2-[[4-[2-(6,7-dimethoxy-3,4-dihydro-1H-isoquinolin-2-yl)ethyl]phenyl]carbamoyl]-4,5-dimethoxyphenyl]quinoline-3-carboxamide]
Refractory solid tumors; children and adolescents with refractory solid tumors, 29 patients
  clinical response: low
Refractory solid tumors; co-administered with tariquidar, compared to historic data in absence of tariquidar
  clearance of docetaxel and vinorelbine: reduced
Refractory solid tumors; out of 29 patients
  complete response, number of patients: one
  partial response, number of patients: two
[1]
  study outcome, toxicity: terminated early due to toxicity
[2]
  docetaxel disposition as a result of tariquidar co-administration: No significant differences
